pIC50: −log10 of the molar value. Counter-ions that a name gives are not always drawn. Bounds are passed on as bounds.

In the test the target is human LOXL2 (Homo sapiens (Human), UniProt Q9Y4K0). Nature of the test: Human LOXL2 amine oxidase activity assay (Amplex Red). To be noted: concentrated conditioned media from CHO cells stably expressing human LOXL2; 2 h at 37° C. with compound; DAP substrate. The format is biochemical. In short, it runs like this: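 Concentrated conditioned medium from CHO cells stably expressing human LOXL2 was preincubated with compound for 2 h at 37 °C in 50 mM borate, pH 8. 1,5-diaminopentane substrate and Amplex Red/HRP were then added. Fluorescence (544/590) was read kinetically every 2 min for 1 h, with activity taken from the linear slope.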
human LOXL2, sequence (Q9Y4K0 26-774): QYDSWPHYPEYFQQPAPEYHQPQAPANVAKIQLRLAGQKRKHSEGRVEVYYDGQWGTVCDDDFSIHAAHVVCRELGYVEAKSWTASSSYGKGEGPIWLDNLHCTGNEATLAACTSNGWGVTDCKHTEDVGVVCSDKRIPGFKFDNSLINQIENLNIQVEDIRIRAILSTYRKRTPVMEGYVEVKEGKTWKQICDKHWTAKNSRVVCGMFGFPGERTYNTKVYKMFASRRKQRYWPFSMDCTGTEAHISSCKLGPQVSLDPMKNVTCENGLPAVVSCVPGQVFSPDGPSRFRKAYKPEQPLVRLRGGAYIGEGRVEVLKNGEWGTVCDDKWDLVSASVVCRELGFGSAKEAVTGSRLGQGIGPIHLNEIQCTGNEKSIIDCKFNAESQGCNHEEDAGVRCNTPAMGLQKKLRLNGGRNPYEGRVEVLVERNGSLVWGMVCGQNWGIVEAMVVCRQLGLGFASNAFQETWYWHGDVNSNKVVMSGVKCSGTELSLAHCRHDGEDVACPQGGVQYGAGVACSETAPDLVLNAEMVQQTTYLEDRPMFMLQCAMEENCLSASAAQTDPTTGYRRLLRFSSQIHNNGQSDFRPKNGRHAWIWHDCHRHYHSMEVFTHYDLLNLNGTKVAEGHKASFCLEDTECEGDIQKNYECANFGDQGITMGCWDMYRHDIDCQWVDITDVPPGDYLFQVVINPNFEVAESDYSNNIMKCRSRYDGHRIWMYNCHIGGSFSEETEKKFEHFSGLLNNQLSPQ
As for `NCc1cc(OCC2CCN(C(=O)Nc3ccccc3)CC2)nc(C(F)(F)F)c1` [Compound 1-42, 4-(((4-(Aminomethyl)-6-(trifluoromethyl)pyridin-2-yl)oxy)methyl)-N-phenylpiperidine-1-carboxamide trifluoroacetate], the pIC50 is over 6.52.

On to `NCc1cc(Oc2cccc(C(=O)NCCCCc3cn(-c4ccccc4)nn3)c2)nc(C(F)(F)F)c1` [Compound 1-217, 3-((4-(Aminomethyl)-6-(trifluoromethyl)pyridin-2-yl)oxy)-N-(4-(1-phenyl-1H-1,2,3-triazol-4-yl)butyl)benzamide hydrochloride], for which the pIC50 was over 6.52.

Consider `NCc1cc(Oc2cccc(C(=O)N3CCc4ccccc4C3)c2)nc(C(F)(F)F)c1` [Compound 1-11, (3-((4-(Aminomethyl)-6-(trifluoromethyl)pyridin-2-yl)oxy)phenyl)(3,4-dihydroisoquinolin-2(1H)-yl)methanone hydrochloride], for which the pIC50 is over 6.52.

For the compound `CC1(O)CCN(C(=O)c2cccc(Oc3cc(CN)cc(C(F)(F)F)n3)c2)CC1` [Compound 1-205, (3-((4-(Aminomethyl)-6-(trifluoromethyl)pyridin-2-yl)oxy)phenyl)(4-hydroxy-4-methylpiperidin-1-yl)methanone hydrochloride], the pIC50 is over 6.52.

As for `NCc1cc(Oc2cccc(C(=O)NCCn3cncn3)c2)nc(C(F)(F)F)c1` [Compound 1-14, N-(2-(1H-1,2,4-Triazol-1-yl)ethyl)-3-((4-(aminomethyl)-6-(trifluoromethyl)pyridin-2-yl)oxy)benzamide hydrochloride], the pIC50 was over 6.52.

As to `Cn1cc(-n2ccc3c(Oc4cc(CN)cc(C(F)(F)F)n4)cccc32)cn1` [Compound 1-37, (2-((1-(1-Methyl-1H-pyrazol-4-yl)-1H-indol-4-yl)oxy)-6-(trifluoromethyl)pyridin-4-yl) methanamine hydrochloride], the pIC50 was over 6.52.

Turning to `NCc1cc(Oc2cccc(C(=O)NC[C@@H](O)CO)c2)nc(C(F)(F)F)c1` [Compound 1-33, (R)-3-((4-(Aminomethyl)-6-(trifluoromethyl)pyridin-2-yl)oxy)-N-(2,3-dihydroxypropyl)benzamide hydrochloride], the pIC50 is over 6.52.

`NCc1cc(Oc2cccc(C(=O)NCC3CCC(=O)N3)c2)nc(C(F)(F)F)c1` (racemic) [Compound 1-29, Racemic-3-((4-(aminomethyl)-6-(trifluoromethyl)pyridin-2-yl)oxy)-N-((5-oxopyrrolidin-2-yl)methyl)benzamide hydrochloride]: the pIC50 was over 6.52.

`Cc1cc(=O)oc2cc(NC(=O)c3cccc(Oc4cc(CN)cc(C(F)(F)F)n4)c3)ccc12` [Compound 1-249, 3-((4-(Aminomethyl)-6-(trifluoromethyl)pyridin-2-yl)oxy)-N-(4-methyl-2-oxo-2H-chromen-7-yl)benzamide hydrochloride]: the pIC50 was over 6.52.

Take `Cc1cc(=O)n(Cc2cc(CN)cc(C(F)(F)F)n2)c(=O)n1CCO` [Compound 1-135, 3-((4-(Aminomethyl)-6-(trifluoromethyl)pyridin-2-yl)methyl)-1-(2-hydroxyethyl)-6-methylpyrimidine-2,4(1H,3H)-dione hydrochloride]: the pIC50 is under 6.00.

As for `NCc1cc(Oc2cccc(C(=O)N3CCC4(CC3)CNC(=O)O4)c2)nc(C(F)(F)F)c1` [Compound 1-27, 8-(3-((4-(Aminomethyl)-6-(trifluoromethyl)pyridin-2-yl)oxy)benzoyl)-1-oxa-3,8-diazaspiro[4.5]decan-2-one hydrochloride], the pIC50 is over 6.52.

As to `NCc1cc(Oc2cccc(C(=O)NO)c2)nc(C(F)(F)F)c1` [Compound 1-218, 3-((4-(Aminomethyl)-6-(trifluoromethyl)pyridin-2-yl)oxy)-N-hydroxybenzamide hydrochloride], the pIC50 is 6.00 to 6.52.

Take `NCc1cc(Oc2cncc(C(=O)N3C[C@@H](O)[C@H](F)C3)c2)nc(C(F)(F)F)c1` (racemic) [Compound 1-55, Racemic-trans-(5-((4-(aminomethyl)-6-(trifluoromethyl)pyridin-2-yl)oxy)pyridin-3-yl)(-3-fluoro-4-hydroxypyrrolidin-1-yl)methanone hydrochloride]: the pIC50 was over 6.52.

With `CCc1cccc(NC(=O)c2cccc(Oc3cc(CN)cc(C(F)(F)F)n3)c2)c1` [Compound 1-245, 3-((4-(Aminomethyl)-6-(trifluoromethyl)pyridin-2-yl)oxy)-N-(3-ethylphenyl)benzamide hydrochloride], the pIC50 is over 6.52.

With `C#C[C@H](CC(=O)O)NC(=O)c1cccc(Oc2cc(CN)cc(C(F)(F)F)n2)c1` [Compound 1-221, (S)-3-(3-((4-(aminomethyl)-6-(trifluoromethyl)pyridin-2-yl)oxy)benzamido)pent-4-ynoic acid], the pIC50 was 6.00 to 6.52.

`CN(C)CCNC(=O)c1cccc(Oc2cc(CN)cc(C(F)(F)F)n2)c1` [Compound 1-35, 3-((4-(Aminomethyl)-6-(trifluoromethyl)pyridin-2-yl)oxy)-N-(2-(dimethylamino)ethyl)benzamide dihydrochloride]: the pIC50 is over 6.52.

Regarding `NCc1cc(Oc2cccc(-n3ccccc3=O)c2)nc(C(F)(F)F)c1` [Compound 1-169, 1-(3-((4-(Aminomethyl)-6-(trifluoromethyl)pyridin-2-yl)oxy)phenyl)pyridin-2(1H)-one], the pIC50 was over 6.52.

As to `NCc1cc(Oc2cccc(C(=O)N3CC[C@@H](CO)C3)c2)nc(C(F)(F)F)c1` [Compound 1-26, (R)-(3-((4-(Aminomethyl)-6-(trifluoromethyl)pyridin-2-yl)oxy)phenyl)(3-(hydroxymethyl)pyrrolidin-1-yl)methanone hydrochloride], the pIC50 is over 6.52.

With `NCc1cc(Oc2cccc(C(=O)N3CC[C@@H](N)C3)c2)nc(C(F)(F)F)c1` [Compound 1-22, (R)-(3-((4-(Aminomethyl)-6-(trifluoromethyl)pyridin-2-yl)oxy)phenyl)(3-aminopyrrolidin-1-yl)methanone dihydrochloride], the pIC50 is over 6.52.

For `NCc1cc(O[C@H]2CCCN(C(=O)Cc3ccc(Cl)c(Cl)c3)C2)nc(C(F)(F)F)c1` [Compound 1-47, (S)-1-(3-((4-(Aminomethyl)-6-(trifluoromethyl)pyridin-2-yl)oxy)piperidin-1-yl)-2-(3,4-dichlorophenyl)ethanone trifluoroacetate], the pIC50 was over 6.52.

`NCc1cc(Oc2cccc(-c3ccccc3)c2)nc(C(F)(F)F)c1` [Compound 1-2, (2-([1,1′-Biphenyl]-3-yloxy)-6-(trifluoromethyl)pyridin-4-yl)methanamine trifluoroacetate]: the pIC50 is over 6.52.

For `NCc1cc(Oc2ccnc(C(=O)Nc3ccccc3)c2)nc(C(F)(F)F)c1` [Compound 1-252, 4-((4-(Aminomethyl)-6-(trifluoromethyl)pyridin-2-yl)oxy)-N-phenylpicolinamide hydrochloride], the pIC50 is over 6.52.

With `CCc1ccc(NC(=O)c2cccc(Oc3cc(CN)cc(C(F)(F)F)n3)c2)cc1` [Compound 1-246, 3-((4-(Aminomethyl)-6-(trifluoromethyl)pyridin-2-yl)oxy)-N-(4-ethylphenyl)benzamide hydrochloride], the pIC50 is over 6.52.

The record behind these values is patent US11072585B2 (PharmAkea, Inc., priority 2015, dated 2021).
